Measured values published in patent US5672715A, “Herbicidal substituted 3-aryl-pyrazoles” (Monsanto Company, priority 1995, dated 1997).
Like-named read-outs stand apart in the source and are kept apart here.

How the values were obtained:
Format in all cases: in vivo
Blackgrass = test: post-emergence herbicide test; conditions: Alopecurus myosuroides, post-emergence, read-out: % plant inhibition; for inhibition at 7.95803 g/ha: 0.0071 lb/A; for inhibition at 40.0143 g/ha: 0.0357 lb/A; for inhibition at 200.072 g/ha: 0.1785 lb/A; for inhibition at 1000.92 g/ha: 0.893 lb/A
Method in brief: (§1)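 Soil pans seeded, covered and leveled; grown in greenhouse 2–3 weeks. Sprayed individually (atomizer, 10 psig, 200 gallons/acre). Percent inhibition recorded.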

Wheat = test: post-emergence herbicide test; conditions: Triticum aestivum, post-emergence, read-out: % plant inhibition
Method in brief: as §1

Common Chickweed = test: post-emergence herbicide test; conditions: post-emergence, read-out: % plant inhibition
Method in brief: as §1

Velvetleaf = test: post-emergence herbicide test; conditions: Abutilon theophrasti, post-emergence, read-out: % plant inhibition
Method in brief: as §1

Yellow Nutsedge = test: post-emergence herbicide test; conditions: Cyperus, read-out: % plant inhibition
Method in brief: as §1

Cocklebur = test: post-emergence herbicide test; conditions: Xanthium strumarium, post-emergence, read-out: % plant inhibition
Method in brief: as §1

Corn = test: post-emergence herbicide test; conditions: Zea mays, post-emergence, read-out: % plant inhibition
Method in brief: as §1

Soybean = test: post-emergence herbicide test; conditions: Glycine max, post-emergence, read-out: % plant inhibition
Method in brief: as §1

Yellow Foxtail = test: post-emergence herbicide test; conditions: Setaria, read-out: % plant inhibition
Method in brief: as §1

Morning Glory [1] = test: post-emergence herbicide test; conditions: Ipomoea, post-emergence, read-out: % plant inhibition
Method in brief: as §1

Barnyardgrass [2] = test: post-emergence herbicide test; conditions: Echinochloa crus-galli, post-emergence, read-out: % plant inhibition
Method in brief: as §1

Bedstraw Catchweed = test: post-emergence herbicide test; conditions: Galium aparine, post-emergence, read-out: % plant inhibition
Method in brief: as §1

Morning Glory [3] = test: pre-emergence herbicide test; conditions: Ipomoea, pre-emergence, read-out: % plant inhibition
Method in brief: (§2)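 Steps: compact topsoil in pan; place seeds; level-fill with cover soil; add a known amount of compound before or after covering; keep pans in greenhouse, bottom-watering as needed; rate % inhibition at about 14 days.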

Rice = test: pre-emergence herbicide test; conditions: Oryza sativa, read-out: % plant inhibition
Method in brief: as §2

Barnyardgrass [4] = test: pre-emergence herbicide test; conditions: Echinochloa crus-galli, pre-emergence, read-out: % plant inhibition
Method in brief: as §2

`Cc1c(-c2cc(OCC(=O)OC(C)C)c(Cl)cc2F)nn(C)c1C(F)(F)F` [Compound 38] showed an inhibition at 7.95803 g/ha (Blackgrass; Table 4a) of 0%, an inhibition at 7.95803 g/ha (Blackgrass; Table 5a) of 0% and an inhibition at 40.0143 g/ha (Blackgrass; Table 4a) of 0%. It also gave an inhibition at 40.0143 g/ha (Blackgrass; Table 5a) of 25%, an inhibition at 200.072 g/ha (Blackgrass; Table 4a) of 10% and an inhibition at 200.072 g/ha (Blackgrass; Table 5a) of 30%. For the same compound, the inhibition at 1000.92 g/ha (Blackgrass; Table 4a) was 0%, the inhibition at 1000.92 g/ha (Blackgrass; Table 5a) was 5% and the inhibition at 7.95803 g/ha (Wheat; 0.0071 lb/A) was 10%. For the same compound, the inhibition at 40.0143 g/ha (Wheat; 0.0357 lb/A) was 10%, the inhibition at 200.072 g/ha (Wheat; 0.1785 lb/A) was 10% and the inhibition at 1000.92 g/ha (Wheat; 0.893 lb/A) was 10%. For the same compound, the inhibition at 7.95803 g/ha (Common Chickweed; 0.0071 lb/A) was 65%, the inhibition at 40.0143 g/ha (Common Chickweed; 0.0357 lb/A) was 75% and the inhibition at 200.072 g/ha (Common Chickweed; 0.1785 lb/A) was 95%. The inhibition at 1000.92 g/ha (Common Chickweed; 0.893 lb/A) was 98%, the inhibition at 7.95803 g/ha (Velvetleaf; 0.0071 lb/A) was 65% and the inhibition at 40.0143 g/ha (Velvetleaf; 0.0357 lb/A) was 100%. The inhibition at 200.072 g/ha (Velvetleaf; 0.1785 lb/A) was 100%, the inhibition at 280.212 g/ha (Velvetleaf; 0.25 lb/A) was 100% and the inhibition at 1000.92 g/ha (Velvetleaf; 0.893 lb/A) was 100%. The inhibition at 7.95803 g/ha (Yellow Nutsedge; 0.0071 lb/A) was 35%, the inhibition at 40.0143 g/ha (Yellow Nutsedge; 0.0357 lb/A) was 25% and the inhibition at 200.072 g/ha (Yellow Nutsedge; 0.1785 lb/A) was 25%. For the same compound, the inhibition at 1000.92 g/ha (Yellow Nutsedge; 0.893 lb/A) was 25%, the inhibition at 7.95803 g/ha (Cocklebur; 0.0071 lb/A) was 80% and the inhibition at 40.0143 g/ha (Cocklebur; 0.0357 lb/A) was 80%. The inhibition at 200.072 g/ha (Cocklebur; 0.1785 lb/A) was 80%, the inhibition at 280.212 g/ha (Cocklebur; 0.25 lb/A) was 100% and the inhibition at 1000.92 g/ha (Cocklebur; 0.893 lb/A) was 100%. For the same compound, the inhibition at 7.95803 g/ha (Corn; 0.0071 lb/A) was 5%, the inhibition at 40.0143 g/ha (Corn; 0.0357 lb/A) was 10% and the inhibition at 200.072 g/ha (Corn; 0.1785 lb/A) was 25%. The inhibition at 280.212 g/ha (Corn; 0.25 lb/A) was 10%, the inhibition at 1000.92 g/ha (Corn; 0.893 lb/A) was 25% and the inhibition at 7.95803 g/ha (Soybean; 0.0071 lb/A) was 10%. For the same compound, the inhibition at 40.0143 g/ha (Soybean; 0.0357 lb/A) was 20%, the inhibition at 200.072 g/ha (Soybean; 0.1785 lb/A) was 30% and the inhibition at 280.212 g/ha (Soybean; 0.25 lb/A) was 15%. It also gave an inhibition at 1000.92 g/ha (Soybean; 0.893 lb/A) of 25%, an inhibition at 7.95803 g/ha (Yellow Foxtail; 0.0071 lb/A) of 0% and an inhibition at 40.0143 g/ha (Yellow Foxtail; 0.0357 lb/A) of 35%. The inhibition at 200.072 g/ha (Yellow Foxtail; 0.1785 lb/A) was 10%, the inhibition at 1000.92 g/ha (Yellow Foxtail; 0.893 lb/A) was 15% and the inhibition at 7.95803 g/ha (Morning Glory [1]; 0.0071 lb/A) was 80%. For the same compound, the inhibition at 40.0143 g/ha (Morning Glory [1]; 0.0357 lb/A) was 100%, the inhibition at 200.072 g/ha (Morning Glory [1]; 0.1785 lb/A) was 100% and the inhibition at 280.212 g/ha (Morning Glory [1]; 0.25 lb/A) was 95%. The inhibition at 1000.92 g/ha (Morning Glory [1]; 0.893 lb/A) was 100%, the inhibition at 7.95803 g/ha (Barnyardgrass [2]; 0.0071 lb/A) was 10% and the inhibition at 40.0143 g/ha (Barnyardgrass [2]; 0.0357 lb/A) was 10%. The inhibition at 200.072 g/ha (Barnyardgrass [2]; 0.1785 lb/A) was 15%, the inhibition at 1000.92 g/ha (Barnyardgrass [2]; 0.893 lb/A) was 15% and the inhibition at 7.95803 g/ha (Bedstraw Catchweed; 0.0071 lb/A) was 35%. It also gave an inhibition at 40.0143 g/ha (Bedstraw Catchweed; 0.0357 lb/A) of 85%, an inhibition at 200.072 g/ha (Bedstraw Catchweed; 0.1785 lb/A) of 90% and an inhibition at 1000.92 g/ha (Bedstraw Catchweed; 0.893 lb/A) of 85%. The inhibition at 7.95803 g/ha (Morning Glory [3]; 0.0071 lb/A) was 20%, the inhibition at 40.0143 g/ha (Morning Glory [3]; 0.0357 lb/A) was 75% and the inhibition at 200.072 g/ha (Morning Glory [3]; 0.1785 lb/A) was 95%. The inhibition at 280.212 g/ha (Morning Glory [3]; 0.25 lb/A) was 100%, the inhibition at 1000.92 g/ha (Morning Glory [3]; 0.893 lb/A) was 100% and the inhibition at 7.95803 g/ha (Rice; 0.0071 lb/A) was 0%. It also gave an inhibition at 40.0143 g/ha (Rice; 0.0357 lb/A) of 0%, an inhibition at 200.072 g/ha (Rice; 0.1785 lb/A) of 0% and an inhibition at 1000.92 g/ha (Rice; 0.893 lb/A) of 40%. The inhibition at 7.95803 g/ha (Barnyardgrass [4]; 0.0071 lb/A) was 0%, the inhibition at 40.0143 g/ha (Barnyardgrass [4]; 0.0357 lb/A) was 15% and the inhibition at 200.072 g/ha (Barnyardgrass [4]; 0.1785 lb/A) was 35%. The inhibition at 1000.92 g/ha (Barnyardgrass [4]; 0.893 lb/A) was 70%.
